The values that follow come from US7304037B2, “Cytostatic conjugates with integrin ligands” (priority 2001, dated 2007).

Usually IC50 stands for the concentration that inhibits the measured activity by half.

In brackets after ≈: the same amount, converted by molar mass. Where two headings read alike, the source gives them in different places.

In series [1] the test system is HT29 human large intestine cell line. The class given is cell-based. As for the experimental part:
(§1) The human large intestine cell lines SW 480 and HT29 (ATCC No. CCL 228) and HTB38 and the mouse melanoma cell line B16F10 (CRL 6475) were grown to confluence in Roux dishes in seromed® RPMI 1640 medium (from Biochrom KG, Berlin) with addition of 10% FCS. They were then trypsinized and taken up in RPMI plus 10% FCS to a cell count of 50,000 cells or, for B16F10, 20,000 cells per mL. 100 μL of cell suspension per well were added to a 96 microwell plate and incubated at 37° C. for 1 day in a CO2 incubator. A further 100 μL of RPMI medium and 1 μL of DMSO were then added with the test substances. The growth was checked after day 6. For this purpose, 25 μL of MTT solution (3-(4,5-dimethylthiazol-2-yl)-2,5-diphenyltetrazolium bromide) were added to each well at a starting concentration of 5 mg/mL of water. The plate was incubated at 37° C. for 5 hours in a CO2 incubator. The medium was then aspirated and 100 1L of i-propanol/well were added. After shaking with 100 μL of water for 30 min, the extinction was measured at 595 nm using a Multiplate Reader (BIO-RAD 3550-UV).
(§2) The cytostatic action is indicated in Table 3 as an IC50 value, in each case for the individual cell lines.

Series [2] relates to B16F10 mouse melanoma cell line. The class given is cell-based. The procedure:
as §1, §2

Series [3] relates to SW480 human large intestine cell line. The class given is cell-based. As for the experimental part: as §1, §2
In series [4] the test system is renal xenograft (RXF 944). The text has this: (§3) In all in-vivo experiments for investigating the inhibition of tumour growth, athymic nude mice (NMRI nu/nu strain) were used. The tumour was developed by serial passage in nude mice, The human origin of the tumour was confirmed by isoenzymatic and immunohistochemical methods.
(§4) The tumour was implanted subcutaneously in both flanks of nu/nu nude mice 6 to 8 weeks old. […] The mice were assigned to the treatment group or the control group (5 mice per group having 8 to 10 assessable tumours) by randomization.
(§5) The size of the tumours was measured in two dimensions by means of a slide gauge. The tumour volume which correlated well with the cell count, was then used for all assessments. The volume was calculated according to the formula “length×breadth×breadth/2” ([a×b^2]/2; a and b representing two diameters arranged at right angles).
(§6) The values of the relative tumour volume (RTV) were calculated for each individual tumour by dividing the tumour size on day X with the tumour size on day 0 (at the time of randomization). The average values of the RTV were then used for the further assessment.
(§7) The inhibition of the increase of the tumour volume (tumour volume of the test group/control group, T/C, in percent) was the final measured value.

The test system of series [5] is hemopoietic stem cells (bone marrow cells). Kind of series: cells. The class given is cell-based, mice. The procedure: Bone marrow cells are flushed out of the femur of mice. 10^5 cells are incubated in McCoy 5A medium (0.3% agar) together with recombinant murine GM-CSF (Genzyme; parent cell colony formation) and the substances (10^−4 to 100 μg/ml) at 37° C. and 7% CO2. 7 days later, the colonies (<50 cells) and clusters (17–50 cells) are counted.

Series [6] deals with melanoma xenograft (MEXF 989). The class given is in vivo, athymic nude mice (NMRI nu/nu strain).
In series [7] the test system is breast cancer model (MX-1). As to conditions: MX-1, 18 mg/kg/day intravenously day 1–3 and day 15–17.
Excerpt: as §3, §4, §5, §6, §7
The compounds are dissolved in 1% aqueous dextrose solution and administered intravenously from day 1–3 and day 15–17.

Series [8] has as its target T1, αvβ3 receptor (αvβ3 from human A375 cells) (Homo sapiens, UniProt P05106+P06756).
T1 construct: αvβ3 from human A375 cells was purified analogously to a procedure described by Wong et al; endogenous in cells; host or cells: human A375 cells (endogenous receptor, detergent-solubilised and purified)
In words: αvβ3 binding test (echistatin displacement, SPA). The procedure:
αvβ3 from human A375 cells was purified analogously to a procedure described by Wong et al. in Molecular Pharmacology 50, 529–537 (1996). In each case, 10 μL of αvβ3 (5 ng) in TBS pH 7.6, 2 mM CaCl2, 1 mM MgCl2, 1% n-octylglucopyranoside (Sigma); 10 μL of test substance in TBS pH 7.6, 0.1% DMSO and 45 μL of TBS pH 7.6, 2 mM CaCl2, 1 mM MgCl2, 1 mM MnCl2 were incubated at room temperature for 1 h. In each case, 25 μL of WGA SPA beads (Amersham, 4 mg/ml) and 10 μL of echistatin (0.1 μCi, Amersham, chloramine-T labelled) were then added. After 16 h at room temperature, the samples were measured in a scintillation measuring apparatus (Wallac 1450).

Where [9] appears, read: IC50 values of the binding to the αVβ3 receptor.
The mark [10] stands for this setting: read-out: IC50 values of the binding to the αVβ3 receptor.

T1 sequence (P06756 31-889 limits assumed): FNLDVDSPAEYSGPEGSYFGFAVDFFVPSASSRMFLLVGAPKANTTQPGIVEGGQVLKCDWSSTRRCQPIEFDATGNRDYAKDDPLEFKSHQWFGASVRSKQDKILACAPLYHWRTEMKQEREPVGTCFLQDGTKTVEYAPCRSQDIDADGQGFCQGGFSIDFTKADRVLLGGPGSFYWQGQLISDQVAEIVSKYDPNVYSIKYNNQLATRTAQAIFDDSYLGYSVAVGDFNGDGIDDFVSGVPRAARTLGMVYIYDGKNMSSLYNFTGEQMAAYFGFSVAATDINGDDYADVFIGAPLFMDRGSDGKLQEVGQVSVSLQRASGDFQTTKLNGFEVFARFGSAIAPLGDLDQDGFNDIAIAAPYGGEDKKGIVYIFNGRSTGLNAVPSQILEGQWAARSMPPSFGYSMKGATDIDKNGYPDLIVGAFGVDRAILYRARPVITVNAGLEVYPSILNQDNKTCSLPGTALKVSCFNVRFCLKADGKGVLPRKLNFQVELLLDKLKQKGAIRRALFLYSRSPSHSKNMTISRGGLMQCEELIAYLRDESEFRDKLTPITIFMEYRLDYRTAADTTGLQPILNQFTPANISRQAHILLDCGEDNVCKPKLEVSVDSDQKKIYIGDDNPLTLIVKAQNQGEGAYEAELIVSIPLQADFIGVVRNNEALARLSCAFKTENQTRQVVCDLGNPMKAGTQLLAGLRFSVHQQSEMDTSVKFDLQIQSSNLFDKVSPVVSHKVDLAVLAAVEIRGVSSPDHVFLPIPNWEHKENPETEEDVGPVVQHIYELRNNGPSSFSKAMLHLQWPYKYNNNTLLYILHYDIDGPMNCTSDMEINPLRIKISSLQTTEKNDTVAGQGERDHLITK
T1 sequence (P06756 891-1048 partner limits assumed): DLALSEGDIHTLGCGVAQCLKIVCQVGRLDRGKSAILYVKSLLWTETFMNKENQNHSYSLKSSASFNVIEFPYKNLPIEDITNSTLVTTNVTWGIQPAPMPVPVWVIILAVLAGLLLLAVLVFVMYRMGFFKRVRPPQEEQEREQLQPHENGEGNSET
T1 sequence (P05106 27-788): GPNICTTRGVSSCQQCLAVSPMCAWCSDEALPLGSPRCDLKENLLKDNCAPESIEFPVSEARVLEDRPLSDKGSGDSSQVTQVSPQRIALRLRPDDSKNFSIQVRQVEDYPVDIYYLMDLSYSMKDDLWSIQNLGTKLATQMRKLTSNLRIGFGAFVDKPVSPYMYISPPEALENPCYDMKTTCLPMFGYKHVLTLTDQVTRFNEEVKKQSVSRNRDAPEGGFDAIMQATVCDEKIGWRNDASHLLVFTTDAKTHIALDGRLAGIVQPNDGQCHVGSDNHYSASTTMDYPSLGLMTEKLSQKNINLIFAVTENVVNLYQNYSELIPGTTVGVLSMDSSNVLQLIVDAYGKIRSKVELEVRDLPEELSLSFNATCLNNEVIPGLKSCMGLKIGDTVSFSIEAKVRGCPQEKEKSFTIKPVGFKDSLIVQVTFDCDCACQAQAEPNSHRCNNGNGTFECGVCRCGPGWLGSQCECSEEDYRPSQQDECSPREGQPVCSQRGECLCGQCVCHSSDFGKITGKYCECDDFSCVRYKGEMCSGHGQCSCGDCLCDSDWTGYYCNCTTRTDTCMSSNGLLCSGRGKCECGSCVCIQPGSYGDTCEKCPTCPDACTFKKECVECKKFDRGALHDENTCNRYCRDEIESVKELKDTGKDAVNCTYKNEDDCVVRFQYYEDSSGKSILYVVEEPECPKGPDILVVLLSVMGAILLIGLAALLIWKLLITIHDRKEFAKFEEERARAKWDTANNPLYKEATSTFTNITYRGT

As to `CCCNC(=O)Nc1cccc(S(=O)(=O)Nc2cccc(C(CC(=O)[O-])NC(=O)Nc3ccc(NC(=S)NCC(=O)N4CCC[C@H]4C(=O)N[C@H](C(=O)O[C@]4(CC)C(=O)OCc5c4cc4n(c5=O)Cc5cc6ccccc6nc5-4)C(C)C)cc3)c2)c1.[Na+]` (single isomer, unassigned) [Example 1], the IC50 in series [1] amounted to 60 nM; in series [2] it was 160 nM; in series [3], 150 nM; in series [8] (setting [9]), 8 nM. Besides, the lethality in series [4] (RXF 944, 18 mg/kg/day intravenously day 1–3 and day 15–17) is reported as 1/7; in series [4] (RXF 944, 24 mg/kg/day intravenously day 1–3 and day 15–17), 0/7; in series [6] (MEXF 989, 18 mg/kg/day intravenously day 1–3 and day 15–17) it was 1/5; in series [6] (MEXF 989, 24 mg/kg/day intravenously day 1–3 and day 15–17) it was 1/5; in series [7] it was 0/5. In series [5], the “toxicity against stem cells in vitro compared to camptothecin (in words)” value (“toxicity … compared to camptothecin (in words)” for short) is “drastically reduced toxicity against stem cells in vitro compared to camptothecin”.

Turning to `CCCNC(=O)Nc1cccc(S(=O)(=O)Nc2cccc(C(CC(=O)[O-])NC(=O)Nc3ccc(NC(=S)NCC(=O)N4CCC[C@H]4C(=O)N[C@H](C(=O)O[C@]4(CC)C(=O)OCc5c4cc4n(c5=O)Cc5cc6ccccc6nc5-4)C(C)C)cc3)c2)c1.[Na+]` (single isomer, unassigned) [Example 2], the IC50 was 150 nM in series [1], 400 nM in series [2], 400 nM in series [3] and 800 nM in series [8] (setting [9]). The “toxicity … compared to camptothecin (in words)” value in series [5] is recorded as “drastically reduced toxicity against stem cells in vitro compared to camptothecin”.

With `CCCNC(=O)Nc1cccc(S(=O)(=O)Nc2cccc(C(CC(=O)O)NC(=O)Nc3ccc(NC(=S)N[C@@H](C)C(=O)N4CCC[C@H]4C(=O)N[C@H](C(=O)O[C@]4(CC)C(=O)OCc5c4cc4n(c5=O)Cc5cc6ccccc6nc5-4)C(C)C)cc3)c2)c1` (single isomer, unassigned) [Example 4], the IC50 stood at 150 nM in series [1], 700 nM in series [2], 600 nM in series [3] and 500 nM in series [8] (setting [10]). Also, the “toxicity … compared to camptothecin (in words)” value in series [5] is “drastically reduced toxicity against stem cells in vitro compared to camptothecin”.

Regarding `CCCNC(=O)Nc1cccc(S(=O)(=O)Nc2cccc(C(CC(=O)O)NC(=O)Nc3ccc(NC(=S)N[C@@H](Cc4c[nH]cn4)C(=O)N4CCC[C@H]4C(=O)N[C@H](C(=O)O[C@]4(CC)C(=O)OCc5c4cc4n(c5=O)Cc5cc6ccccc6nc5-4)C(C)C)cc3)c2)c1` (single isomer, unassigned) [Example 5], the IC50 is 300 nM in series [1], 1000 nM in series [2], 700 nM in series [3] and 30 nM in series [8] (setting [10]).

`CCCNC(=O)Nc1cccc(S(=O)(=O)Nc2cccc(C(CC(=O)O)NC(=O)Nc3ccc(NC(=S)N[C@@H](CC(N)=O)C(=O)N4CCC[C@H]4C(=O)N[C@H](C(=O)O[C@]4(CC)C(=O)OCc5c4cc4n(c5=O)Cc5cc6ccccc6nc5-4)C(C)C)cc3)c2)c1` (single isomer, unassigned) [Example 6]: the IC50 in series [1] is 200 nM; in series [2] it was 600 nM; in series [3], 400 nM; in series [8] (setting [10]) it was 100 nM.

As for `CCCNC(=O)Nc1cccc(S(=O)(=O)Nc2cccc(C(CC(=O)O)NC(=O)Nc3ccc(NC(=S)N[C@@H](CCC)C(=O)N4CCC[C@H]4C(=O)N[C@H](C(=O)O[C@]4(CC)C(=O)OCc5c4cc4n(c5=O)Cc5cc6ccccc6nc5-4)C(C)C)cc3)c2)c1` (single isomer, unassigned) [Example 7], the IC50 in series [1] is 350 nM; in series [2] it was 1000 nM; in series [3], 600 nM; in series [8] (setting [10]) it was 100 nM.

With `CCCNC(=O)Nc1cccc(S(=O)(=O)Nc2cccc(C(CC(=O)O)NC(=O)Nc3ccc(NC(=S)N[C@@H](CC(=O)O)C(=O)N4CCC[C@H]4C(=O)N[C@H](C(=O)O[C@]4(CC)C(=O)OCc5c4cc4n(c5=O)Cc5cc6ccccc6nc5-4)C(C)C)cc3)c2)c1` (single isomer, unassigned) [Example 8], the IC50 in series [1] was determined as 50 nM; in series [2], 300 nM; in series [3], 50 nM.

Turning to `CCCNC(=O)Nc1cccc(S(=O)(=O)Nc2cccc(C(CC(=O)O)NC(=O)Nc3ccc(NC(=S)NCC(=O)N4CCC[C@H]4C(=O)N[C@@H](CC(C)C)C(=O)O[C@]4(CC)C(=O)OCc5c4cc4n(c5=O)Cc5cc6ccccc6nc5-4)cc3)c2)c1` (single isomer, unassigned) [Example 9], the IC50 worked out at 30 nM in series [1], 80 nM in series [2] and 70 nM in series [3].

For `CCCNC(=O)Nc1cccc(S(=O)(=O)Nc2cccc(C(CC(=O)O)NC(=O)Nc3ccc(NC(=S)N[C@@H](C)C(=O)N4CCC[C@H]4C(=O)N[C@@H](CC(C)C)C(=O)NC4C=CCC5CN(c6c(F)cc7c(=O)c(C(=O)O)cn(C8CC8)c7c6Cl)CC54)cc3)c2)c1` (single isomer, unassigned) [Example 12], the IC50 was determined as 600 nM in series [1] (6 days), 2000 nM in series [2] (6 days), 1000 nM in series [3] (6 days) and 30 nM in series [8] (setting [10]).

For `CC[C@@]1(O)C(=O)OCc2c1cc1n(c2=O)Cc2cc3ccccc3nc2-1` [camptothecin, 20(S)-Camptothecin, reference compound], in series [4] (RXF 944, 2.5 mg/kg/day), the lethality was 0/6 and the “optimal T/C” value stood at 41.1%. Besides, the IC50 in series [5] (Mus musculus, Bone marrow cell, 168 h, murine bone marrow cells, GM-CSF, 7 days, read-out: IC50 values of toxicity against hemopoietic stem cells) was 3 ng/mL (≈ 8.61 nM).

With `CC[C@@]1(O)C(=O)OCc2c1cc1n(c2=O)Cc2cc3c(CN(C)C)c(O)ccc3nc2-1` [topotecan, reference compound], in series [4] (RXF 944, 1.8 mg/kg/day), the lethality is reported as 0/7 and the “optimal T/C” value is on record as 47.8%.
